Data from patent publication US7696207B2, “Therapeutic agents useful for treating pain” (Purdue Pharma L.P., priority 2002, dated 2010).

Experiments:
human VR1 [1] = target: T1, human VR1 (Homo sapiens, UniProt Q8NER1); test: VR1 capsaicin-based assay (FLIPR calcium influx); format: cell-based; settings: HEK293-EcR cells induced to express human VR1; activation by capsaicin (400 nM); Fluo-4, FLIPR
T1 construct: expressed in transfected cells
Protocol: (§1) Human VR1 cloning. Human spinal cord RNA (commercially available from Clontech, Palo Alto, Calif.) was used. Reverse transcription was conducted on 1.0 μg total RNA using Thermoscript Reverse Transcriptase (commercially available from Invitrogen, Carlsbad, Calif.) and oligo dT primers as detailed in its product description. Reverse transcription reactions were incubated at 55° C. for 1 h, heat-inactivated at 85° C. for 5 min, and RNase H-treated at 37° C. for 20 min.
(§2) Human VR1 cDNA sequence was obtained by comparison of the human genomic sequence, prior to annotation, to the published rat sequence. Intron sequences were removed and flanking exonic sequences were joined to generate the hypothetical human cDNA. Primers flanking the coding region of human VR1 were designed as follows: forward primer, […] (SEO ID NO: 1); and reverse primer, […] (SEO ID NO: 2). […]
(§3) Generation of inducible cell lines. […] On the day of assay, cells were loaded with Fluo-4 (a calcium-sensitive dye that is commercially available from Molecular Probes, Eugene, Oreg.) and CAP-mediated calcium influx was measured using a Fluorometric Imaging Plate Reader (“FLIPR”) (commercially available from Molecular Devices Corp., Sunnyvale, Calif.) as described below. […]

human VR1 [2] = target: T1, human VR1; test: VR1 pH-based assay (FLIPR calcium influx); format: cell-based; settings: HEK293-EcR cells induced to express human VR1; activation by agonist buffer pH 5.5; Fluo-4, FLIPR
Protocol: as §1, §2, §3

T1 sequence (Q8NER1 whole entry): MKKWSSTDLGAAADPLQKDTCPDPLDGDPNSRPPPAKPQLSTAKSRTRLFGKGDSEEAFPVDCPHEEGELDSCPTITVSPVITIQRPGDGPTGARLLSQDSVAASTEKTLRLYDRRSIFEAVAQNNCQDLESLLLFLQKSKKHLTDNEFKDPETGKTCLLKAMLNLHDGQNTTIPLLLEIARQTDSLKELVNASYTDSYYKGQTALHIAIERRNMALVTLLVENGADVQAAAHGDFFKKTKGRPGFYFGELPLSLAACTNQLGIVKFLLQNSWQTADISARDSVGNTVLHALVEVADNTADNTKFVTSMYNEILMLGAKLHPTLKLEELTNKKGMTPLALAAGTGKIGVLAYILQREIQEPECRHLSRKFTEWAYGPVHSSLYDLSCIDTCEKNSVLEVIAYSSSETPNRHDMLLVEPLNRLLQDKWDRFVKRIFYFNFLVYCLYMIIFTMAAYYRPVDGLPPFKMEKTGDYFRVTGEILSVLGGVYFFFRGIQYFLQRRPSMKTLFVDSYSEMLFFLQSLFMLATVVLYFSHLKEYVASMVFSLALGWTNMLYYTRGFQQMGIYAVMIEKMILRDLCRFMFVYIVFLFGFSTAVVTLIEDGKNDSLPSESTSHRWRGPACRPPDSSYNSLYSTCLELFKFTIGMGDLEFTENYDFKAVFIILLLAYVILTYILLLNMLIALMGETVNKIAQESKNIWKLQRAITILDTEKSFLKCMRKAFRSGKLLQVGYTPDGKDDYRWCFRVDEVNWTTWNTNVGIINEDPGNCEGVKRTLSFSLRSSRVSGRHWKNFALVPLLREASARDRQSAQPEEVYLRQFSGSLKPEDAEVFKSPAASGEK

Cc1ccnnc1N1CCN(C(=O)Nc2ccc(C(C)(C)C)cc2)CC1 [Compound A17, 4-(4-Methyl-pyridazin-3-yl)-piperazine-1-carboxylic acid (4-tert-butyl-phenyl)-amide]
IC50 (human VR1 [1]): 47.2 ± 9.9 nM
IC50 (human VR1 [2]): 221 ± 50.5 nM
